Results reported in patent US5620958A, “Bradykinin antagonists” (Coretech, Inc., priority 1994, dated 1997).
Peptide text beside a SMILES is read from it.

What was measured:
BK2 receptor [1] = biological target: T1, BK2 receptor (Oryctolagus cuniculus, UniProt Q28642); experiment: blood pressure response to BK2 agonist in LPS-pretreated rabbits; assay type: in vivo, rabbit; set-up: key to OBSERVED ANTAGONIST ACTIVITY BK2: +: indicates complete blockade of the blood pressure response to the appropriate agonist; +/-: indicates partial blockade; -: indicates no observable effect at the dose indicated; settings: rabbits given LPS (10 μg) 20 hours before
T1 construct: when administered to an intact animal; from tissue; host or cells: whole rabbit (systemic arterial blood pressure), LPS-pretreated
T1 sequence (Q28642 1-367): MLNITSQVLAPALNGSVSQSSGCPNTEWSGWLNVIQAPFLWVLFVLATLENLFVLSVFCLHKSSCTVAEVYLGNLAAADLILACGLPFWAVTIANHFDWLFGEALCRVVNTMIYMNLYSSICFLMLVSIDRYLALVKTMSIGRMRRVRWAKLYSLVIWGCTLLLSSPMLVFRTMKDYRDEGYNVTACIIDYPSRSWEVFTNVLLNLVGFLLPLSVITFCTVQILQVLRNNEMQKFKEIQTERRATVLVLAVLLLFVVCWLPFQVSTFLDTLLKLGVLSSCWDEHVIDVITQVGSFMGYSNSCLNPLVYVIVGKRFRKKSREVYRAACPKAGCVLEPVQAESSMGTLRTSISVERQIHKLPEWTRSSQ

BK2 receptor [2] = biological target: T1, BK2 receptor; experiment: rabbit jugular vein (RJV) in vitro, antagonism of BK; assay type: cell-based; settings: Table A; recovery after washing
BK-induced hypotension = BK-induced hypotension in the anesthetized rat; assay type: in vivo; settings: intravenous infusion 9 nmol kg^-1 min^-1; BK 4×10^-9 moles; FIG. 3
Protocol: After stopping the infusion of CP-0127, it can be seen that the responses to BK returned slowly being fully recovered after approximately 20 minutes.
Using anaesthetized rats, dose-response curves to BK were constructed and the ED50 identified (see FIG. 5a). The ED50 was then injected before and at 15 minute intervals after a single S.C. injection of CP-0127.

[3] = test system: BK-induced vascular permeability; experiment: rabbit skin vascular permeability to intradermal BK (Evans Blue); assay type: in vivo
BK1 receptor = biological target: T2, BK1 receptor (Oryctolagus cuniculus, UniProt P48748); experiment: rabbit aorta in vitro, reversal of des-Arg^9 -BK contraction; assay type: cell-based; settings: Table G; negative log of molar concentration causing 50% reversal of 10^-7 M des-Arg^9 -BK contraction
T2 construct: when administered to an intact animal; from tissue; host or cells: whole rabbit (systemic arterial blood pressure), LPS-pretreated
T2 sequence (P48748 1-352): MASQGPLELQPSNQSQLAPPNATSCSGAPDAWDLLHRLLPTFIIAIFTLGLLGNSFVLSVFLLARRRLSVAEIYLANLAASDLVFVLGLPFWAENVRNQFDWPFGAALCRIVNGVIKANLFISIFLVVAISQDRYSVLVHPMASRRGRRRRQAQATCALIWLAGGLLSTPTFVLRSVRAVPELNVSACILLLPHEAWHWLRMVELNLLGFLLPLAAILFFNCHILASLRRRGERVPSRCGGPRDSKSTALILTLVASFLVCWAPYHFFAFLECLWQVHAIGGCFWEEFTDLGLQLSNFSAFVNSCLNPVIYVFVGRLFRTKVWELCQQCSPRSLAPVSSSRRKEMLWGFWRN

`CC(C)C[C@H](NC(=O)[C@@H](Cc1ccccc1)NC(=O)[C@H](CS)NC(=O)[C@H](Cc1ccccc1)NC(=O)CNC(=O)[C@@H]1C[C@@H](O)CN1C(=O)[C@@H]1CCCN1C(=O)[C@H](CCCNC(=N)N)NC(=O)[C@H](N)CCCNC(=N)N)C(=O)N[C@@H](CCCNC(=N)N)C(=O)O` [CP-0126] (HELM PEPTIDE1{[dR].R.P.[Hyp].G.F.C.[dF].L.R}$$$$V2.0) was tested, and the “OBSERVED ANTAGONIST ACTIVITY BK2” value (BK2 receptor [1]; 1 μg kg^-1 min^-1) was “+”, the “OBSERVED ANTAGONIST ACTIVITY BK2” value (BK2 receptor [1]; 3 μg kg^-1 min^-1) was “+” and the “OBSERVED ANTAGONIST ACTIVITY BK2” value (BK2 receptor [1]; 10 μg kg^-1 min^-1) was “+”. The “RJV % REC” value (BK2 receptor [2]) was 60%, the “inhibition of hypotensive response to BK” value (BK-induced hypotension) was “almost totally ineffective” and the “inhibition of BK-induced skin vascular permeability” value ([3]; co-injected intradermally with BK, FIG. 2A) was “more potent than CP-0127”. The “inhibition of BK-induced skin vascular permeability” value ([3]; pre-injected 15 or 30 minutes before BK in the same site, FIGS. 2B, 2C) was “significantly less effective” and the “BK1 RABBIT AORTA IC50” value (BK1 receptor) was “Inactive”.
